Measured values from patent US20250145608A1, “KRAS DEGRADING COMPOUNDS COMPRISING ANNULATED 2-AMINO-3-CYANO THIOPHENES” (Boehringer Ingelheim Int'l GmbH Corp., priority 2021, published 2025).

Legend:
Type in all cases: cell-based
[1] = tested on: AsPC-1 cells; assay: AsPC-1 CTG proliferation assay (120 h) (pancreatic cancer, G12D); conditions: Homo sapiens, ASPC1, AsPC-1 proliferation
Description: AsPC-1 CTG Proliferation Assay (120 h) (Pancreatic Cancer, G12D)
The CTG assay is designed to measure quantitatively the proliferation of AsPC-1 cells (ATCC […]), using the CellTiter Glow Assay Kit (Promega G7571). Cells are grown in RPMI medium (ATCC) supplemented with Fetal Calf Serum (Life Technologies, Gibco BRL, Cat. No. 10270-106). On “day 0” 2000 AsPC-1 cells are seeded in 60 μL RPMI ATCC+10% FCS+ Penstrep in a 384-well plate, flat and clear bottom (Greiner, PNr. 781091). Cells are then incubated in the plates at 37° C. in a CO2 incubator overnight. On day 1, compounds (10 mM stock in DMSO) are added with the ECHO acoustic liquid handler system (Beckman Coulter), including DMSO controls. Plates are incubated for 120 h, and cell viability is measured using CellTiter-Glo luminescent cell viability reagent (Promega product code G7570). Viability (stated as percent of control) is defined as relative luminescence units RLU of each well divided by the RLU of cells in DMSO controls. IC50 values are determined from viability measurements by non-linear regression using a four-parameter model.

[2] = tested on: SAS cells; assay: SAS CTG proliferation assay (120 h) (HNSCC, wt amplified)
Description: SAS CTG Proliferation Assay (120 h) (HNSCC, Wt Amplified)
(§1) SAS cells (JCRB0260) are dispensed into 384-well plates, flat and clear bottom (Greiner, PNr. 781091) at a density of 300 cells per well in 60 μL DMEM:F12 (Gibco 31330-038)+10% Fetal Calf Serum (HyClone, PNr.: SH30084.03) and incubated at 37° C. in a CO2 incubator overnight. The next day, compounds (10 mM stock in DMSO) are added with the ECHO acoustic liquid handler system (Beckman Coulter), including DMSO controls. Plates are incubated for 120 h, and cell viability is measured using CellTiter-Glo luminescent cell viability reagent (Promega product code G7570). Viability (stated as percent of control) is defined as relative luminescence units RLU of each well divided by the RLU of cells in DMSO controls. IC50 values are determined from viability measurements by non-linear regression using a four-parameter model.

[3] = tested on: LOVO cells; assay: LOVO CTG proliferation assay (120 h) (CRC, G13D); conditions: Homo sapiens
Description: LOVO CTG Proliferation Assay (120 h) (CRC, G13D)
as §1, with “LOVO cells (ATCC” for “SAS cells (JCRB0260)”, “LOVO cells (ATCC CCL-229) are dispensed” for “SAS cells (JCRB0260) are dispensed”, “density of 1000 cells per” for “density of 300 cells per”, “60 μL DMEM (Sigma D6429)+10% Fetal Calf” for “60 μL DMEM:F12 (Gibco 31330-038)+10% Fetal Calf”

[4] = tested on: SK—CO-1 cells; assay: SK-CO-1 CTG proliferation assay (120 h) (CRC, G12V); conditions: Homo sapiens, SK-CO-1 proliferation
Description: SK—CO-1 CTG Proliferation Assay (120 h) (CRC, G12V)
as §1, with “SK—CO-1 cells (ATCC” for “SAS cells (JCRB0260)”, “SK—CO-1 cells (ATCC HTB-39) are dispensed” for “SAS cells (JCRB0260) are dispensed”, “density of 500 cells per” for “density of 300 cells per”, “60 μL EMEM (Sigma M5650)+10% Fetal Calf” for “60 μL DMEM:F12 (Gibco 31330-038)+10% Fetal Calf”

[5] = molecular target: T1, KRAS(G12D) (Homo sapiens, UniProt P01116, G12D); assay: HiBit degradation assay in GP5d-HiBit-KRAS(G12D) cells (18 h; DC50, Dmax)
T1 construct: introduced immediately downstream of the initiating Methionine codon of the endogenous KRAS locus; host or cells: GP5d-HiBit-KRAS(G12D), a CRISPR knock-in at the endogenous locus
T1 sequence (P01116 1-188 isoform P01116-2 G12D): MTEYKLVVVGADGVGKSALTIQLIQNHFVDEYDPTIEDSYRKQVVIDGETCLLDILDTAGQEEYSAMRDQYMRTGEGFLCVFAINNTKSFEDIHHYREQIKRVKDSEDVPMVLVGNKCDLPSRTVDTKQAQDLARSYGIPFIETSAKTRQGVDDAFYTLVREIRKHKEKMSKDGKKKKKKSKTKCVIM
Description: A HiBit protein detection tag (amino acid sequence […], Seq ID No 1) was introduced immediately downstream of the initiating Methionine codon of the endogenous KRAS locus (Ensembl gene ID ENSG00000133703.7) of GP5d cells (ECACC Cat. No. 95090715) by CRISPR-based genome engineering using a KRAS(G12D) mutant donor construct encoding the HiBit tag. […] Correct modification of the KRAS locus was assessed by PCR-based genotyping and Sanger sequencing of the isolated PCR products. The resulting cell line is referred to as GP5d-HiBit-KRAS(G12D).
To assess PROTAC-mediated degradation of KRAS(G12D), GP5d-HiBit-KRAS(G12D) cells were seeded at 25000 cells per well in 100 μL Dulbecco's Modified Eagle medium (Sigma cat. no. D6429) supplemented with 10% fetal calf serum into white bottom opaque 96 well plates (Perkin Elmer cat no. 5680). Plates were incubated at 37° C., 5% CO2 in a humidified incubator over night to allow the cells to adhere. […] Plates were further incubated at 37° C. for 18 hours. Following incubation, 100 μL per well Promega Nano-Glo HiBit lytic detection reagent mix (Promega Nano-Glo HiBit Lytic Detection System #N3050), prepared according to the manufacturer's instructions in the kit, were added. To allow for adequate cell lysis, plates were incubated on an orbital shaker for 15 min and further incubated 30 min at room temperature. Upon completion of cell lysis, luminescence was measured using an Envision plate reader using the Ultrasensitive Luminescence Protocol for 96 well plates. Luminescence levels were normalized by the values obtained with DMSO-treated samples and plotted as percent of DMSO control. DC50 values were computed using a four parametric logistic model. Dmax values represent the maximal extent of degradation observed and is stated as percent of control (% Ctrl.) treatments. DC50 and Dmax are reported in Table 64 for representative compounds of the invention.

[6] = tested on: NCI-H358 cells; assay: NCI-H358 CTG proliferation assay (120 h) (NSCLC, G12C); conditions: Homo sapiens, assay 2, read-out: H358 (assay 2) IC50
Description: NCI-H358 CTG Proliferation Assay (120 h) (NSCLC, G12C)
NCI-H358 cells (ATCC No. CRL-5807) are dispensed into white bottom opaque 96 well plates (Perkin Elmer cat no. 5680) at a density of 2000 cells per well in 100 μL RPMI-1640 ATCC-Formulation (Gibco #A10491)+10% FCS (fetal calf serum) (assay 1) or into black 384-well plates, flat and clear bottom (Greiner, PNr. 781091) at a density of 200 cells per well in 60 μl RPMI-1640 ATCC-Formulation (Gibco #A10491)+10% FCS (fetal calf serum) (assay 2). […] Compounds (10 mM stock in DMSO) are added at logarithmic dose series using the HP Digital Dispenser D300 (Tecan) (assay 1) or the ECHO acoustic liquid handler system (Beckman Coulter) (assay 2), normalizing for added DMSO and including DMSO controls. For the TO time point measurement, untreated cells are analyzed at the time of compound addition. Plates are incubated for 120 h, and cell viability is measured using CellTiter-Glo luminescent cell viability reagent (Promega product code G7570). Viability (stated as percent of control) is defined as relative luminescence units RLU of each well divided by the RLU of cells in DMSO controls. IC50 values are determined from viability measurements by non-linear regression using a four parameter model.

Cc1ncsc1-c1ccc([C@H](CO)NC(=O)[C@@H]2C[C@@H](O)CN2C(=O)C(C(C)C)n2cc(OCCCCN3C[C@H](C)N(c4nccc(-c5noc([C@@]6(C)CCCc7sc(N)c(C#N)c76)n5)n4)CCC3(C)C)nn2)cc1 (some centres unmarked) [I-32]
IC50 [1]: 8330 nM
IC50 [2]: 9440 nM
IC50 [3]: 929 nM
IC50 [4]: 507 nM
DC50 [5]: 7.6 nM
Dmax 18 h [5]: 83 % Ctrl

CC(C)C(C(=O)N1C[C@H](O)C[C@H]1C(=O)NCc1ccc(C#N)c(Cl)c1)c1cc(OCCCCN2CCCN(c3nccc(-c4noc([C@@]5(C)CCCc6sc(N)c(C#N)c65)n4)n3)[C@@H](C)C2)no1 (some centres unmarked) [I-18]
IC50 [1]: 435 nM
IC50 [2]: 3380 nM
IC50 [3]: 278 nM
IC50 [4]: 124 nM
IC50 [6]: 169 nM
DC50 [5]: 4.1 nM
Dmax 18 h [5]: 89 % Ctrl

COC(=O)[C@H](NC(=O)[C@@H]1C[C@@H](O)CN1C(=O)C(C(C)C)n1cc(OCCCCN2CCCN(c3nccc(-c4noc([C@@]5(C)CCCc6sc(N)c(C#N)c65)n4)n3)[C@@H](C)C2)nn1)c1ccc(-c2scnc2C)cc1 (some centres unmarked) [I-33]
IC50 [1]: 323 nM
IC50 [2]: 84.5 nM
IC50 [3]: 50 nM
IC50 [4]: 1950 nM
DC50 [5]: 13.1 nM
Dmax 18 h [5]: 91 % Ctrl

CC(C)C(C(=O)N1C[C@H](O)C[C@H]1C(=O)NCc1ccc(-c2scnc2CO)cc1)c1cc(OCCCCN2CCCN(c3nccc(-c4noc([C@@]5(C)CCCc6sc(N)c(C#N)c65)n4)n3)[C@@H](C)C2)no1 (some centres unmarked) [I-9]
IC50 [1]: 470 nM
IC50 [2]: 16400 nM
IC50 [3]: 59.4 nM
IC50 [4]: 216 nM
IC50 [6]: 288 nM
DC50 [5]: 12.9 nM
Dmax 18 h [5]: 92 % Ctrl
